Results taken from PubChem BioAssay AID1259407 (Chemical Carcinogenesis Research Information System (CCRIS), 2018).
Active and inactive are the calls of the source. The rule behind the calls is not given here.

Tested on: CCRIS mutagenicity, Ames/micronucleus/aberration tests
Experiment: CCRIS mutagenicity studies
[1] = Test System: AMES SALMONELLA TYPHIMURIUM, Strain/Indicator: TA98, Metabolic Activation: NONE, Method: PREINCUBATION
[2] = Test System: AMES SALMONELLA TYPHIMURIUM, Strain/Indicator: TA100, Metabolic Activation: NONE, Method: PREINCUBATION
[3] = Test System: AMES SALMONELLA TYPHIMURIUM, Strain/Indicator: TA1535, Metabolic Activation: NONE, Method: PREINCUBATION
[4] = Test System: AMES SALMONELLA TYPHIMURIUM, Strain/Indicator: TA98, Metabolic Activation: RAT, LIVER, S-9, AROCLOR 1254, Method: STANDARD PLATE

O=NN1CN2CN(C1)CN(N=O)C2
mutagenic call (End Point: IN VITRO CHROMOSOMAL ABERRATIONS, Test System: CHL CELLS, Metabolic Activation: RAT, LIVER, S-9, SODIUM PHENOBARBITAL AND 5,6-BENZOFLAVONE): active; positive (structural and ploidy changes) | mutagenic call [1]: inactive; negative | mutagenic call (Test System: AMES SALMONELLA TYPHIMURIUM, Strain/Indicator: TA98, Metabolic Activation: RAT LIVER S-9, PHENOBARBITAL AND BETA-NAPHTHOFLAVONE, Method: PREINCUBATION): inactive; negative | mutagenic call [2]: active; positive | mutagenic call (Test System: AMES SALMONELLA TYPHIMURIUM, Strain/Indicator: TA100, Metabolic Activation: RAT LIVER S-9, PHENOBARBITAL AND BETA-NAPHTHOFLAVONE, Method: PREINCUBATION): active; positive | mutagenic call [3]: inactive; negative | mutagenic call (Test System: AMES SALMONELLA TYPHIMURIUM, Strain/Indicator: TA1535, Metabolic Activation: RAT LIVER S-9, PHENOBARBITAL AND BETA-NAPHTHOFLAVONE, Method: PREINCUBATION): inactive; negative | mutagenic call (Test System: AMES SALMONELLA TYPHIMURIUM, Strain/Indicator: TA1537, Metabolic Activation: NONE, Method: PREINCUBATION): inactive; negative | mutagenic call (Test System: AMES SALMONELLA TYPHIMURIUM, Strain/Indicator: TA1537, Metabolic Activation: RAT LIVER S-9, PHENOBARBITAL AND BETA-NAPHTHOFLAVONE, Method: PREINCUBATION): inactive; negative | mutagenic call (Test System: AMES SALMONELLA TYPHIMURIUM, Strain/Indicator: TA1538, Metabolic Activation: NONE, Method: PREINCUBATION): inactive; negative | mutagenic call (Test System: AMES SALMONELLA TYPHIMURIUM, Strain/Indicator: TA1538, Metabolic Activation: RAT LIVER S-9, PHENOBARBITAL AND BETA-NAPHTHOFLAVONE, Method: PREINCUBATION): inactive; negative | mutagenic call (Test System: E.COLI, Strain/Indicator: WP2UVRA, Metabolic Activation: NONE, Method: PREINCUBATION): inactive; negative | mutagenic call (Test System: E.COLI, Strain/Indicator: WP2UVRA, Metabolic Activation: RAT LIVER S-9, PHENOBARBITAL AND BETA-NAPHTHOFLAVONE, Method: PREINCUBATION): active; positive

CC(C)=C[C@H]1[C@@H](C(=O)OCc2coc(Cc3ccccc3)c2)C1(C)C
mutagenic call (Test System: AMES SALMONELLA TYPHIMURIUM, Strain/Indicator: TA98, Metabolic Activation: NONE, Method: STANDARD PLATE): inactive; negative | mutagenic call [4]: inactive; negative | mutagenic call (Test System: AMES SALMONELLA TYPHIMURIUM, Strain/Indicator: TA100, Metabolic Activation: RAT, LIVER, S-9, AROCLOR 1254, Method: STANDARD PLATE): inactive; negative | mutagenic call (Test System: CHINESE HAMSTER V-79, Strain/Indicator: V-79/6-THIOGUANINE, Metabolic Activation: NONE, Method: STANDARD PLATE): inactive; negative | mutagenic call (Test System: CHINESE HAMSTER V-79, Strain/Indicator: V-79/6-THIOGUANINE, Metabolic Activation: RAT HEPATOCYTES, Method: STANDARD PLATE): inactive; negative | mutagenic call (Test System: CHINESE HAMSTER V-79, Strain/Indicator: V-79/OUABAIN, Metabolic Activation: NONE, Method: STANDARD PLATE): inactive; negative | mutagenic call (Test System: CHINESE HAMSTER V-79, Strain/Indicator: V-79/OUABAIN, Metabolic Activation: RAT HEPATOCYTES, Method: STANDARD PLATE): inactive; negative

CCC1NC(=O)c2cc(S(N)(=O)=O)c(Cl)cc2N1 (stereo not given)
mutagenic call (Test System: AMES SALMONELLA TYPHIMURIUM, Strain/Indicator: TA97, Metabolic Activation: HAMSTER, LIVER, S-9, AROCLOR 1254 (10%), Method: PREINCUBATION): inactive; negative | mutagenic call (Test System: AMES SALMONELLA TYPHIMURIUM, Strain/Indicator: TA97, Metabolic Activation: HAMSTER, LIVER, S-9, AROCLOR 1254 (30%), Method: PREINCUBATION): inactive; negative | mutagenic call (Test System: AMES SALMONELLA TYPHIMURIUM, Strain/Indicator: TA97, Metabolic Activation: NONE, Method: PREINCUBATION): inactive; negative | mutagenic call (Test System: AMES SALMONELLA TYPHIMURIUM, Strain/Indicator: TA97, Metabolic Activation: RAT, LIVER, S-9, AROCLOR 1254 (10%), Method: PREINCUBATION): inactive; negative | mutagenic call (Test System: AMES SALMONELLA TYPHIMURIUM, Strain/Indicator: TA97, Metabolic Activation: RAT, LIVER, S-9, AROCLOR 1254 (30%), Method: PREINCUBATION): inactive; negative | mutagenic call (Test System: AMES SALMONELLA TYPHIMURIUM, Strain/Indicator: TA98, Metabolic Activation: HAMSTER, LIVER, S-9, AROCLOR 1254 (10 OR 30%), Method: PREINCUBATION): inactive; negative | mutagenic call [1]: inactive; negative | mutagenic call (Test System: AMES SALMONELLA TYPHIMURIUM, Strain/Indicator: TA98, Metabolic Activation: RAT, LIVER, S-9, AROCLOR 1254 (10 OR 30%), Method: PREINCUBATION): inactive; negative | mutagenic call (Test System: AMES SALMONELLA TYPHIMURIUM, Strain/Indicator: TA100, Metabolic Activation: HAMSTER, LIVER, S-9, AROCLOR 1254 (5 OR 10%), Method: PREINCUBATION): inactive; negative | mutagenic call (Test System: AMES SALMONELLA TYPHIMURIUM, Strain/Indicator: TA100, Metabolic Activation: HAMSTER, LIVER, S-9, AROCLOR 1254 (30%), Method: PREINCUBATION): inactive; negative | mutagenic call [2]: inactive; negative | mutagenic call (Test System: AMES SALMONELLA TYPHIMURIUM, Strain/Indicator: TA100, Metabolic Activation: RAT, LIVER, S-9, AROCLOR 1254 (5 OR 10%), Method: PREINCUBATION): inactive; negative | mutagenic call (Test System: AMES SALMONELLA TYPHIMURIUM, Strain/Indicator: TA100, Metabolic Activation: RAT, LIVER, S-9, AROCLOR 1254 (30%), Method: PREINCUBATION): inactive; negative | mutagenic call (Test System: AMES SALMONELLA TYPHIMURIUM, Strain/Indicator: TA1535, Metabolic Activation: HAMSTER, LIVER, S-9, AROCLOR 1254 (10 OR 30%), Method: PREINCUBATION): inactive; negative | mutagenic call [3]: inactive; negative | mutagenic call (Test System: AMES SALMONELLA TYPHIMURIUM, Strain/Indicator: TA1535, Metabolic Activation: RAT, LIVER, S-9, AROCLOR 1254 (10 OR 30%), Method: PREINCUBATION): inactive; negative

c1cscn1
mutagenic call (Test System: AMES SALMONELLA TYPHIMURIUM, Strain/Indicator: TA98, Metabolic Activation: HAMSTER, LIVER, S-9, AROCLOR 1254, Method: STANDARD PLATE): inactive; negative | mutagenic call [4]: inactive; negative | mutagenic call (Test System: AMES SALMONELLA TYPHIMURIUM, Strain/Indicator: TA100, Metabolic Activation: HAMSTER, LIVER, S-9, AROCLOR 1254, Method: STANDARD PLATE): inactive; negative | mutagenic call (Test System: AMES SALMONELLA TYPHIMURIUM, Strain/Indicator: TA1535, Metabolic Activation: HAMSTER, LIVER, S-9, AROCLOR 1254, Method: STANDARD PLATE): inactive; negative | mutagenic call (Test System: AMES SALMONELLA TYPHIMURIUM, Strain/Indicator: TA1535, Metabolic Activation: NONE, Method: STANDARD PLATE): inactive; negative | mutagenic call (Test System: AMES SALMONELLA TYPHIMURIUM, Strain/Indicator: TA1535, Metabolic Activation: RAT, LIVER, S-9, AROCLOR 1254, Method: STANDARD PLATE): inactive; negative | mutagenic call (Test System: AMES SALMONELLA TYPHIMURIUM, Strain/Indicator: TA1537, Metabolic Activation: HAMSTER, LIVER, S-9, AROCLOR 1254, Method: STANDARD PLATE): inactive; negative | mutagenic call (Test System: AMES SALMONELLA TYPHIMURIUM, Strain/Indicator: TA1537, Metabolic Activation: NONE, Method: STANDARD PLATE): inactive; negative | mutagenic call (Test System: AMES SALMONELLA TYPHIMURIUM, Strain/Indicator: TA1537, Metabolic Activation: RAT, LIVER, S-9, AROCLOR 1254, Method: STANDARD PLATE): inactive; negative | mutagenic call (Test System: AMES SALMONELLA TYPHIMURIUM, Strain/Indicator: TA1538, Metabolic Activation: HAMSTER, LIVER, S-9, AROCLOR 1254, Method: STANDARD PLATE): inactive; negative | mutagenic call (Test System: AMES SALMONELLA TYPHIMURIUM, Strain/Indicator: TA1538, Metabolic Activation: NONE, Method: STANDARD PLATE): inactive; negative | mutagenic call (Test System: AMES SALMONELLA TYPHIMURIUM, Strain/Indicator: TA1538, Metabolic Activation: RAT, LIVER, S-9, AROCLOR 1254, Method: STANDARD PLATE): inactive; negative | mutagenic call (Test System: MOUSE LYMPHOMA, Strain/Indicator: L5178Y (TK+/TK-), Metabolic Activation: NONE, Method: SUSPENSION/PLATE): inactive; negative. reevaluation of results: negative | mutagenic call (Test System: MOUSE LYMPHOMA, Strain/Indicator: L5178Y (TK+/TK-), Metabolic Activation: RAT, LIVER, S-9, AROCLOR 1254, Method: SUSPENSION/PLATE): inactive; negative. reevaluation of results: negative
